For experiment [1], the system named is HT29 xenograft tumors. Put plainly: HT29 xenograft tumor model in NSG mice. It counts as in vivo. As to the method: To test the ability of selinexor to enhance MYXV replication in vivo, a xenograft tumor model was established in immunodeficient NSG mice. Human Colo205 (FIG. 7) and HT29 (FIG. 8) cells were injected subcutaneously on both sides of the flank to generate tumors (FIG. 7A). After the tumors size reached between 100-200 mm^3 (2-3 weeks), mice were separated into treatment groups to have approximately equal average tumor sizes. Animals (n=5) were treated with PBS (oral and IT right tumor), selinexor (oral, 15 mg/kg), vMyx-Fluc (wild-type MYXV expressing Firefly luciferase and TdTomato; IT left tumor, 1×10^7 FFU), or selinexor (oral) and vMyx-Fluc (IT left tumor). After 48 hours post-treatment mice were imaged using an IVIS system for luciferase expression. […] Subsequently, mice received 2nd and 3rd doses of selinexor and a second IT injection of MYXV in the same tumor. […] Additionally, tumor burden was measured on both flanks during the course of treatment (FIG. 7F, FIG. 7G, FIG. 8E, and FIG. 8F).
Animal Studies: Male and female NSG mice were purchased from Jackson laboratory at 6-8 weeks of age. Animals were housed under sterile conditions. The animals were acclimatized for at least seven days before tumor implantation or any experimental procedures. Cells (1×10^6/mouse in 100 μL PBS) were subcutaneously injected into the flanks of NSG mice. When the average tumor volumes reached 50-200 mm^3, the mice were randomized into different treatment groups of five or six animals such that each treatment group had approximately the same average tumor volume. Tumor volume was measured two or three times per week as follows: volume=(length×width^2)/2. When the tumor volume reached 1.5-2 cm^3 animals were euthanized and tumors were collected for histology or processed for virus titration. To detect MYXV replication in the tumor bed luciferin was injected via IP delivery and bioluminescence images taken (Xenogen IVIS 2000).

The subject of experiment [2] is PANC-1 cells. Description: CyQUANT NF cell proliferation assay (PANC-1). It counts as cell-based, human. The note with it: after 24 hours compared to mock treated cells, selinexor 0.1 or 1 μM, multiple MOI. As to the method: Cell Proliferation Assay: To measure cancer cell proliferation based on the amount of cellular DNA, the CyQuant™ NF Cell Proliferation Assay Kit (Invitrogen) was used according to the manufacturer's instructions. Briefly, PANC-1, HT29, MDA-MB435, and Colo205 cells were seeded in a 96-well plate (1×10^4 cells/well) and left to attach to the wells overnight. The next day, the medium was removed and replaced with 50 μL medium containing different concentrations of selinexor (0-1 μM). After an hour of incubation with selinexor, the virus was added to different MOIs (0.5-5), bringing the end volume of every well up to 100 μL. A 1× dye binding solution was prepared by adding 9 μL of the CyQuant™ NF Dye reagent in 4.5 mL Hank's Balanced Salt Solution (HBSS) buffer (Invitrogen). After 24, 48, 72, and 96 hours of incubation, the medium was removed from the cells and 50 μL 1× dye solution was added to all wells. The microplate was covered to protect it from light and was incubated for 30-60 minutes in a 5% CO2 incubator at 37° C. Subsequently, cell proliferation was quantified by measuring fluorescence with an excitation of 485 nm and emission of 530 nm in a VarioSkan Lux Microplate reader (Thermo Fisher). All experiments were performed in quadruple and normalized to mock-treated cells.

With `O=C(/C=C\n1cnc(-c2cc(C(F)(F)F)cc(C(F)(F)F)c2)n1)NNc1cnccn1` [selinexor], the “luciferase expression (IVIS) vs virus alone” value in experiment [1] (48 hours after first vMyx-Fluc IT injection, selinexor oral 15 mg/kg) is on record as “significantly higher levels of luciferase”. Moreover, the “luciferase signal (IVIS) vs virus alone” value in experiment [1] (after second treatment) is reported as “significantly enhanced level of luciferase signal”. In addition, in experiment [1] (both flanks, selinexor oral 15 mg/kg, vMyx-Fluc IT 1×10^7 FFU), the “tumor burden compared to PBS or MYXV-only” value was “significantly reduced tumor burden”. The “cell proliferation (DNA content)” value in experiment [2] is given as “significant reductions in cell proliferation”.
